According to patent US11420961B2, “Heterocyclic compounds” (Hoffmann-La Roche Inc., priority 2017, dated 2022):

Biological target: T1, MAGL (Homo sapiens, UniProt Q99685)
T1 sequence (Q99685 1-303): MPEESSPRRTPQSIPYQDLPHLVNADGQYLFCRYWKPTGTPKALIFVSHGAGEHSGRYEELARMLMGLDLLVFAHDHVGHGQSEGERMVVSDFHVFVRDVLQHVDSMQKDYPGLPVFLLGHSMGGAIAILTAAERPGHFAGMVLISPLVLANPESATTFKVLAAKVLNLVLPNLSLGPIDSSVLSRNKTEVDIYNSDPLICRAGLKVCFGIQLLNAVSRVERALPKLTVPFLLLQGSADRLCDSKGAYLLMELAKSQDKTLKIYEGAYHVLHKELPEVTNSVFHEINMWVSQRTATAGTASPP
Assay: 2-AG assay: MAGL inhibitory activity by hydrolysis of 2-arachidonoylglycerol to arachidonic acid, mass spectrometry
Type: biochemical
Details: 2-AG assay (values marked [a])
Description: Alternatively, compounds were profiled for MAGL inhibitory activity by determining the enzymatic activity by following the hydrolysis of the natural substrate, 2-arachidonoylglycerol, resulting in arachidonic acid, which can be followed by mass spectrometry. This assay is hereinafter abbreviated “2-AG assay”.
The 2-AG assay was carried out in 384 well assay plates (PP, Greiner Cat #784201) in a total volume of 20 μL. Compound dilutions were made in 100% DMSO (VWR Chemicals 23500.297) in a polypropylene plate in 3-fold dilution steps to give a final concentration range in the assay from 12.5 μM to […]. 0.25 μL compound dilutions (100% DMSO) were added to 9 μL MAGL in assay buffer (50 mM TRIS (GIBCO, 15567-027), 1 mM EDTA (Fluka, 03690-100 ml), 0.01% (v/v) Tween. After shaking, the plate was incubated for 15 min at RT. To start the reaction, 10 μL 2-arachidonoylglycerol in assay buffer was added. The final concentrations in the assay was […] and 8 μM 2-arachidonoylglyerol. After shaking and 30 min incubation at RT, the reaction was quenched by the addition of 40 μL of acetonitrile containing 4 μM of d8-arachidonic acid. The amount of arachidonic acid was traced by an online SPE system (Agilent Rapidfire) coupled to a triple quadrupole mass spectrometer (Agilent 6460). A C18 SPE cartridge (G9205A) was used in an acetonitrile/water liquid setup. The mass spectrometer was operated in negative electrospray mode following the mass transitions 303.1→259.1 for arachidonic acid and 311.1→267.0 for d8-arachidonic acid. The activity of the compounds was calculated based on the ratio of intensities [arachidonic acid/d8-arachidonic acid].

SMILES | IC50
Cn1cc(C(c2ccccc2)C2CCN(C(=O)c3ccc4c(c3)NC(=O)CO4)CC2)cn1 (single isomer, unassigned) [Example 141, 6-[4-[(R or S)-(1-Methylpyrazol-4-yl)-phenyl-methyl]piperidine-1-carbonyl]-4H-1,4-benzoxazin-3-one] | 6.68 nM
COc1ccc(C(c2ccccc2)C2CCN(C(=O)c3ccc4c(c3)NC(=O)CO4)CC2)cc1OCCF (single isomer, unassigned) [Example 135, 6-[4-[(R or S)-[3-(2-Fluoroethoxy)-4-methoxy-phenyl]-phenyl-methyl]piperidine-1-carbonyl]-4H-1,4-benzoxazin-3-one] | 4.16 nM
COc1cc(C(c2ccccc2)C2CCN(C(=O)c3ccc4c(c3)NC(=O)CO4)CC2)ccc1OCCF (single isomer, unassigned) [Example 139, 6-[4-[(R or S)-[4-(2-Fluoroethoxy)-3-methoxy-phenyl]-phenyl-methyl]piperidine-1-carbonyl]-4H-1,4-benzoxazin-3-one] | 0.17 nM
COc1cc(C(c2ccccc2)C2CCN(C(=O)c3ccc4c(c3)NC(=O)CO4)CC2)ccc1OCCF (single isomer, unassigned) [Example 138, 6-[4-[(S or R)-[4-(2-Fluoroethoxy)-3-methoxy-phenyl]-phenyl-methyl]piperidine-1-carbonyl]-4H-1,4-benzoxazin-3-one] | 9.41 nM
COc1ccc(C(c2ccccc2)C2CCN(C(=O)c3ccc4c(c3)NC(=O)CO4)CC2)cc1OCCF (single isomer, unassigned) [Example 134, 6-[4-[(S or R)-3-(2-Fluoroethoxy)-4-methoxy-phenyl-phenyl-methyl]piperidine-1-carbonyl]-4H-1,4-benzoxazin-3-one] | 0.11 nM

The remaining lines, values ahead:

IC50 | SMILES
182 nM | COc1cccc(C(c2ccccc2)C2CN(C(=O)c3ccc4c(c3)NC(=O)CO4)C2)c1 (stereo not drawn) [Example 131, 6-[3-[(3-Methoxyphenyl)-phenyl-methyl]azetidine-1-carbonyl]-4H-1,4-benzoxazin-3-one]
25.1 nM | CS(=O)(=O)c1ccc(C(c2ccccc2)C2CCN(C(=O)c3ccc4c(c3)NC(=O)CO4)CC2)cc1 (single isomer, unassigned) [Example 133, 6-[4-[(R or S)-(4-Methylsulfonylphenyl)-phenyl-methyl]piperidine-1-carbonyl]-4H-1,4-benzoxazin-3-one]
0.27 nM | CS(=O)(=O)c1ccc(C(c2ccccc2)C2CCN(C(=O)c3ccc4c(c3)NC(=O)CO4)CC2)cc1 (single isomer, unassigned) [Example 132, 6-[4-[(S or R)-(4-Methylsulfonylphenyl)-phenyl-methyl]piperidine-1-carbonyl]-4H-1,4-benzoxazin-3-one]
0.24 nM | COc1cc(C(c2ccccc2)C2CCN(C(=O)c3ccc4c(c3)NC(=O)CO4)CC2)ccn1 (single isomer, unassigned) [Example 137, 6-[4-[(R or S)-(2-Methoxy-4-pyridyl)-phenyl-methyl]piperidine-1-carbonyl]-4H-1,4-benzoxazin-3-one]
85.3 nM | O=C1COc2ccc(C(=O)N3CC(C(c4ccccc4)c4ccc(C(F)(F)F)cc4)C3)cc2N1 (stereo not drawn) [Example 130, 6-[3-[Phenyl-[4-(trifluoromethyl)phenyl]methyl]azetidine-1-carbonyl]-4H-1,4-benzoxazin-3-one]
258 nM | O=C1COc2ccc(C(=O)N3CC(C(c4ccccc4)c4ccccc4)C3)cc2N1 [Example 124, 6-(3-Benzhydrylazetidine-1-carbonyl)-4H-1,4-benzoxazin-3-one]

Biological target: T2, MAGL (recombinant wild-type) (Homo sapiens, UniProt Q99685)
T2 sequence (Q99685 1-303): T1 sequence (Q99685 1-303)
Assay: 4-NPA assay: MAGL inhibitory activity by hydrolysis of 4-nitrophenylacetate, absorbance at 405 nm
Type: biochemical
Details: 4-NPA assay (values without footnote [a])
In short: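 Compound (final 25 μM to 1.7 nM, 3-fold steps) was preincubated 15 min at RT with 1 nM MAGL in 50 mM Tris, 1 mM EDTA, then 300 μM 4-nitrophenylacetate was added. A405 was read after 5 min and again 80 min later at RT, and activity was taken as the difference between the two reads.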

SMILES | IC50
Cc1ccc(C(c2ccc(F)cc2)C2CCN(C(=O)c3ccc4c(c3)NC(=O)CO4)CC2)cc1 (single isomer, unassigned) [Example 112, 6-[4-[(S or R)-(4-Fluorophenyl)-(p-tolyl)methyl]piperidine-1-carbonyl]-4H-1,4-benzoxazin-3-one] | 0.3 nM
